Experiments:
human VR1 [1] = target: T1, human VR1 (Homo sapiens, UniProt Q8NER1); assay: VR1 capsaicin-based assay in HEK293-EcR cells (FLIPR, Fluo-4); assay type: cell-based
T1 construct: expressed in transfected cells
Protocol: Human VR1 cloning. Human spinal cord RNA (commercially available from Clontech, Palo Alto, Calif.) was used. Reverse transcription was conducted on 1.0 μg total RNA using Thermoscript Reverse Transcriptase (commercially available from Invitrogen, Carlsbad, Calif.) and oligo dT primers as detailed in its product description. Reverse transcription reactions were incubated at 55° C. for 1 h, heat-inactivated at 85° C. for 5 min, and RNase H-treated at 37° C. for 20 min. Human VR1 cDNA sequence was obtained by comparison of the human genomic sequence, prior to annotation, to the published rat sequence. Intron sequences were removed and flanking exonic sequences were joined to generate the hypothetical human cDNA. […] On the day of assay, cells were loaded with Fluo-4 (a calcium-sensitive dye that is commercially available from Molecular Probes, Eugene, Oreg.) and CAP-mediated calcium influx was measured using a Fluorometric Imaging Plate Reader (“FLIPR”) (commercially available from Molecular Devices Corp., Sunnyvale, Calif.) as described below. […]

human VR1 [2] = target: T1, human VR1; assay: VR1 pH-based assay in HEK293-EcR cells (FLIPR, Fluo-4); assay type: cell-based; conditions: activation by agonist buffer giving pH 5.5, human VR1 in PonA-induced HEK293-EcR cells, 50 pM to 3 μM, n+3
Protocol: Human VR1 cloning. Human spinal cord RNA (commercially available from Clontech, Palo Alto, Calif.) was used. Reverse transcription was conducted on 1.0 μg total RNA using Thermoscript Reverse Transcriptase (commercially available from Invitrogen, Carlsbad, Calif.) and oligo dT primers as detailed in its product description. Reverse transcription reactions were incubated at 55° C. for 1 h, heat-inactivated at 85° C. for 5 min, and RNase H-treated at 37° C. for 20 min. Human VR1 cDNA sequence was obtained by comparison of the human genomic sequence, prior to annotation, to the published rat sequence. Intron sequences were removed and flanking exonic sequences were joined to generate the hypothetical human cDNA. Primers flanking the coding region of human VR1 were designed as follows: forward primer, [NT]; and reverse primer, [NT] of VR1 was performed on one tenth of the Reverse transcription reaction mixture using Expand Long Template Polymerase and Expand Buffer 2 in a final volume of 50 μL according to the manufacturer's instructions (Roche Applied Sciences, Indianapolis, Ind.). After denaturation at 94° C. for 2 min PCR amplification was performed for 25 cycles at 94° C. for 15 sec, 58° C. for 30 sec, and 68° C. for 3 min followed by a final incubation at 72° C. for 7 min to complete the amplification. […]

T1 sequence (Q8NER1 whole entry): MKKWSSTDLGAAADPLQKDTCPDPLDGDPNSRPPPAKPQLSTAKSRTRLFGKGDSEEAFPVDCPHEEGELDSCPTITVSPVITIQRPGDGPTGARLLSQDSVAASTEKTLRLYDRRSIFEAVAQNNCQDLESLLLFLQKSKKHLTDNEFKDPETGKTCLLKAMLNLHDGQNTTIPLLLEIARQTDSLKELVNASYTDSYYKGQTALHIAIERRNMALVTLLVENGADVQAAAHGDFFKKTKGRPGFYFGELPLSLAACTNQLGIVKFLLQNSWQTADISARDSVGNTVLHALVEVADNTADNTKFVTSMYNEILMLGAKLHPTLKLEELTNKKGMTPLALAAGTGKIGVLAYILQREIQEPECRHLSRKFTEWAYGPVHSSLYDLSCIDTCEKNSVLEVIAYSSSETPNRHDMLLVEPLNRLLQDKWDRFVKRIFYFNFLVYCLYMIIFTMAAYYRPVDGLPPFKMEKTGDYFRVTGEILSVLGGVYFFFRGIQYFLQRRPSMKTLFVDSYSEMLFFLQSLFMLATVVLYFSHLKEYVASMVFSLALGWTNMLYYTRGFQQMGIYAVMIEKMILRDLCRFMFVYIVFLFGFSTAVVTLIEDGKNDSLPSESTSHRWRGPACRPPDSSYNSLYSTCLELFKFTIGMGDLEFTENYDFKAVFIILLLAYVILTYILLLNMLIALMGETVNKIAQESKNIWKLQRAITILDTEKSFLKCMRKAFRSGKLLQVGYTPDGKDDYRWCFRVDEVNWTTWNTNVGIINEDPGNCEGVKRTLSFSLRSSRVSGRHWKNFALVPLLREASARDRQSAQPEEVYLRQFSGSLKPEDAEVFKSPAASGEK

C[C@@H]1CN(c2ncccc2Cl)CCN1/C(=N\C#N)NCCC1=CCCCC1 [Compound DEY]
IC50 (human VR1 [1]; capsaicin-based assay, human VR1 activated by capsaicin (400 nM) in PonA-induced HEK293-EcR cells, 50 pM to 3 μM, n+3): 59.4 ± 13.1 nM | binding to and modulation of human VR1 (conclusion in words) (human VR1 [1]; conclusion from the pH-based assay and the capsaicin-based assay): binds to and modulates the activity of human VR1 | IC50 (human VR1 [2]): 197 ± 39.8 nM
